From US6737383B1, “Herbicidal oxadiazolidines” (priority 1999, dated 2004)

Columns and labels:
dallisgrass = experiment: Test D dallisgrass; format: in vivo, Paspalum dilatatum; conditions: Postemergence, 0 to 100 scale
goosegrass = experiment: Test D goosegrass; format: in vivo, Eleusine indica; conditions: Postemergence, 0 to 100 scale
sandbur = experiment: Test D sandbur; format: in vivo, Cenchrus echinatus; conditions: Postemergence, 0 to 100 scale
tall mallow = experiment: Test D tall mallow; format: in vivo, Malva sylvestris; conditions: Postemergence, 0 to 100 scale
Green foxtail [1] = experiment: Test D green foxtail; format: in vivo; conditions: Rate 250 g/ha; Postemergence; 0 to 100 scale
Green foxtail [2] = experiment: Test D green foxtail; format: in vivo; conditions: Postemergence, 0 to 100 scale, 0 no injury, 100 complete control
Green foxtail [3] = experiment: Test D green foxtail; format: in vivo; conditions: Postemergence, 0 to 100 scale, 0 no injury, 100 complete control; remark: listed apart in the source
Green foxtail [4] = experiment: Test D green foxtail; format: in vivo; conditions: Rate 250 g/ha; Postemergence; 0 to 100 scale; remark: listed apart in the source
Green foxtail [5] = experiment: Test D green foxtail; format: in vivo; conditions: Postemergence, 0 to 100 scale, 0 no injury, 100 complete control; remark: listed apart in the source
[6] = Rate 16 g/ha, 0 no injury, 100 complete control
[7] = Rate 32 g/ha, 0 no injury, 100 complete control
[8] = Rate 64 g/ha, 0 no injury, 100 complete control
[9] = Rate 125 g/ha, 0 no injury, 100 complete control

| Compound | Plant response rating, Dallisgrass (dallisgrass; [6]) | Plant response rating, Dallisgrass (dallisgrass; [7]) | Plant response rating, Dallisgrass (dallisgrass; [8]) | Plant response rating, Dallisgrass (dallisgrass; [9]) | Plant response rating, Dallisgrass (dallisgrass; Rate 250 g/ha) | Plant response rating, Goosegrass (goosegrass; [6]) | Plant response rating, Goosegrass (goosegrass; [7]) | Plant response rating, Goosegrass (goosegrass; [8]) | Plant response rating, Goosegrass (goosegrass; [9]) | Plant response rating, Goosegrass (goosegrass; Rate 250 g/ha) | Plant response rating, Sandbur (sandbur; [6]) | Plant response rating, Sandbur (sandbur; [7]) | Sandbur plant response rating (sandbur; [8]) | Sandbur plant response rating (sandbur; [9]) | Plant response rating, Sandbur (sandbur; Rate 250 g/ha) | Plant response rating, Tall Mallow (tall mallow; [6]) | Plant response rating, Tall Mallow (tall mallow; [7]) | Tall Mallow plant response rating (tall mallow; [8]) | Tall Mallow plant response rating (tall mallow; [9]) | Plant response rating, Tall Mallow (tall mallow; Rate 250 g/ha) | further results |
| --- | --- | --- | --- | --- | --- | --- | --- | --- | --- | --- | --- | --- | --- | --- | --- | --- | --- | --- | --- | --- | --- |
| CC(C)N(C(=O)n1oc(=O)n(C2CC2)c1=O)c1ccc(Cl)cc1 [Compound 241] | 0 | 40 | 50 | 90 | 100 | 0 | 100 | 100 | 100 | 100 | 0 | 40 | 20 | 100 | 90 | 0 | 0 | 0 | 10 | 40 | Plant response rating, Green foxtail (Green foxtail [1]): 100; Plant response rating, Green foxtail (Green foxtail [2]; Rate 64 g/ha): 10; Plant response rating, Green foxtail (Green foxtail [2]; Rate 125 g/ha): 100; Plant response rating, Green foxtail (Green foxtail [3]; Rate 16 g/ha): 0; Plant response rating, Green foxtail (Green foxtail [3]; Rate 32 g/ha): 10; Plant response rating, Green foxtail (Green foxtail [4]): 100; Green foxtail plant response rating (Green foxtail [5]; Rate 64 g/ha): 10; Green foxtail plant response rating (Green foxtail [5]; Rate 125 g/ha): 100 |
| CC(C)N(C(=O)n1oc(=O)n(C2CCC2)c1=O)c1ccccc1 [Compound 348] | 0 | 50 | 90 | 100 | 100 | 50 | 90 | 100 | 100 | 100 | 0 | 0 | 20 | 60 | 100 | 0 | 0 | 0 | 20 | 40 | Plant response rating, Green foxtail (Green foxtail [1]): 100; Plant response rating, Green foxtail (Green foxtail [2]; Rate 64 g/ha): 100; Plant response rating, Green foxtail (Green foxtail [2]; Rate 125 g/ha): 100; Plant response rating, Green foxtail (Green foxtail [3]; Rate 16 g/ha): 0; Plant response rating, Green foxtail (Green foxtail [3]; Rate 32 g/ha): 20; Plant response rating, Green foxtail (Green foxtail [4]): 100; Green foxtail plant response rating (Green foxtail [5]; Rate 64 g/ha): 100; Green foxtail plant response rating (Green foxtail [5]; Rate 125 g/ha): 100 |
| CC(C)N(C(=O)n1oc(=O)n(C2CCC2)c1=O)c1ccc(Cl)cc1 [Compound 349] | 0 | 0 | 0 | 60 | 90 | 0 | 20 | 100 | 100 | 90 | 0 | 0 | 0 | 20 | 80 | 0 | 0 | 0 | 0 | 0 | Plant response rating, Green foxtail (Green foxtail [1]): 100; Plant response rating, Green foxtail (Green foxtail [2]; Rate 64 g/ha): 10; Plant response rating, Green foxtail (Green foxtail [2]; Rate 125 g/ha): 80; Plant response rating, Green foxtail (Green foxtail [3]; Rate 16 g/ha): 0; Plant response rating, Green foxtail (Green foxtail [3]; Rate 32 g/ha): 0; Plant response rating, Green foxtail (Green foxtail [4]): 100; Green foxtail plant response rating (Green foxtail [5]; Rate 64 g/ha): 10; Green foxtail plant response rating (Green foxtail [5]; Rate 125 g/ha): 80 |
